According to US20200096524A1, “PLASMA AND LIVER LIPID SPECIES AS BIOMARKERS OF FATTY LIVER” (École Polytechnique Fédérale de Lausanne (EPFL), priority 2017, published 2020):

Legend:
[1] = system: C57BL/6J mice fed HFHS diet (fatty liver); assay: high-fat high-sucrose (HFHS) diet induced NAFLD mouse model, therapeutic NR supplementation, liver lipidomics; format: in vivo
Description: (A-C) C57BL/6J mice: (A) Schematic illustration of the three experimental groups used for validation of the NAFLD signatures; mice on CD (green), mice on HFHS diet from 7-25 weeks (grey), mice starting HFHS diet at 7 weeks and treated with nicotinamide riboside (NR) 9 weeks after the start of HFHS diet till the end of the study (for 9 weeks—therapeutic intervention, magenta). (B) Liver total TAG concentration (normalized to liver weight). […] (D-E) Human subjects: (D) PCA of 55 TAG species measured in human plasma from healthy, steatosis and NASH patients. (E) Plasma total TAG levels in human samples. (F-G) BXDs: (F) Correlation matrix showing the Pearson correlation of Atgl mRNA expression in four different metabolic tissues with the pro- and anti-NAFLD TAG signatures in plasma (left) and liver (right) for both diets. (G) Gene ontology biological processes (GO BP) associated with NAFLD TAG signatures. […] Red and blue cells represent the enriched pathways with the positively (scale bar: log 10 p-value) and negatively (scale bar: −log 10 p-value) correlated liver transcripts respectively. For B and E differences in mean TAG levels were compared using two-sample t tests. *p<0.05, **p<0.01, ***p<0.001.
(A) Levels of pro- and anti-NAFLD signatures in C57BL/6J mice fed on CD, high-fat high-sucrose-diet (HFHS) and HFHS diet supplemented with NR, 9 weeks after the initiation of HFHS diet (HFHS+NR). (B) Pearson correlation matrix of the pro- and anti-NAFLD signatures with NAFLD readouts including the NAS score (NAFLD activity score) and liver NAD+ levels. (C) Levels of plasma NAFLD signatures in human subjects with various degrees of NAFLD. (D) Pearson correlation matrix of the NAFLD signatures with NAFLD readouts in human subjects. (E) Pearson correlation of Atgl expression in subcutaneous WAT with pro- and anti-NAFLD plasma TAG signatures in BXD strains. For mice: n=6-9 per group. For human subjects: n=12, healthy; n=7, steatosis; n=14, early stage NASH; n=11, advanced stage NASH. Differences in mean TAG species were compared using two-sample t tests. *p<0.05, **p<0.01, ***p<0.001.
(A) Correlation diagram (corrgram) showing diet-independent association of lipid species with liver mass. […] Note that the CLs—CL(LOOPo), CL(LLPoP) and CL(OOOP)—are shown in the figure with an additional CL species because the two are isobaric and inseparable chromatographically. (F) Corrgram showing negative correlation of obesity and NAFLD traits with healthy CL species and positive correlation with unhealthy CL species.
It was then tested the relevance of these lipids as signatures of fatty liver in a different mouse model of NAFLD (induced by high-fat high-sucrose (HFHS) diet) and tested whether a NAFLD lowering therapeutic intervention, i.e. nicotinamide adenine dinucleotide (NAD^+) precursor, nicotinamide riboside (NR), impacts these lipid markers. As such, the liver lipids were compared of mice fed CD or HFHS diet for 18 weeks, or mice that were fed HFHS diet supplemented with NR 9 weeks after the start of HFHS diet when they had already developed NAFLD (a therapeutic intervention, HFHS+NR) (FIG. 11A). […] Of all the TAG species measured, only 53% were increased in HFHS cohort while 33% were decreased and 14% unchanged (data not shown). […] Importantly, the pro-NAFLD lipids correlated positively, whereas the anti-NAFLD lipids correlated negatively with clinical NAFLD readouts (FIG. 12B).
It was next tested whether this change in the profile of nine CL species is a general phenomenon in other dietary-induced models of hepatic steatosis and mitochondrial dysfunction and if the profile can be reverted by ameliorating hepato-steatosis via enhancing mitochondrial function. It has been previously shown that nicotinamide riboside (NR) treatment ameliorates high-fat high-sucrose (HFHS) diet induced fatty liver disease by boosting nicotinamide adenine dinucleotide (NAD+) levels and thereby enhancing mitochondrial function. […]

[2] = system: high-fat high-sucrose (HFHS) diet induced fatty liver disease; conditions: previously shown; by boosting NAD+ levels and enhancing mitochondrial function; cited from earlier work

Compound: NC(=O)c1ccc[n+]([C@@H]2O[C@H](CO)[C@@H](O)[C@H]2O)c1 [NR, nicotinamide riboside]
- liver anti-NAFLD lipids (TAGs 52:5, 52:4, 54:6) ([1]; C57BL/6J mice, HFHS+NR vs HFHS, FIG. 12A): increased the anti-NAFLD lipids only to a slight extent
- liver levels of healthy CLs (CL(LLLL), MLCL(LLL)) ([1]; C57BL/6J mice, HFHS+NR vs HFHS, FIG. 13D): increased
- liver levels of unhealthy CLs (MLCL(LOO), MLCL(LLO), CL(LOOPo), CL(LLPoP), CL(LOOO), CL(OOOP)) ([1]; C57BL/6J mice, HFHS+NR vs HFHS, FIG. 13E): decreased
- liver total TAG concentration ([1]; C57BL/6J mice, HFHS+NR vs HFHS, NR added 9 weeks after start of HFHS diet, 18 weeks total, FIG. 11B): decreased
- liver pro-NAFLD lipids (TAGs 52:2, 54:3, 56:3, 50:2) ([1]; C57BL/6J mice, HFHS+NR vs HFHS, lowered: TAGs 54:3, 56:3, 50:2, FIG. 12A): significantly lowered three of the four pro-NAFLD lipids
- liver NAD+ levels ([1]; steatotic livers of HFHS mice, after NR treatment, FIG. 12B): replenished
- HFHS diet induced fatty liver disease [2]: ameliorates
